# Results published in patent publication US10028931B2, “Synergistic compositions for treating microbial infections” (UNIVERSITY OF ROCHESTER, priority 2014, dated 2018).
# Values joined by “and” are separate entries in the source; they are usually repeats but may differ in a detail not shown here. Identical values can stand only once. Like-named read-outs stand apart in the source and are kept apart here.
# Legend:
# [1] = test system: Staphylococcus aureus strain UAMS-1; assay: Antimicrobial susceptibility testing (MIC, broth microdilution); type: cell-based; conditions: S. aureus UAMS-1, Mueller Hinton broth, 37° C.
# Method in brief: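 Broth microdilution in Mueller Hinton broth, 37 °C for 18 h, with about 1×10^5 CFU of strain UAMS-1 per well and doubling compound concentrations from 0 to 256 μg mL−1. The endpoint was the lowest concentration without visible growth. Wells at or above that level were plated and counted for bactericidal activity.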
# [2] = test system: S. aureus strain UAMS-1; assay: Fractional Inhibitory Concentration testing with mupirocin; type: cell-based; conditions: combined with mupirocin, S. aureus UAMS-1, Mueller Hinton broth, 18 hours; synergistic FIC≤0.5
# Experimental: The RNase P inhibitors described herein were tested for Fractional Inhibitory Concentration (FIC) in the presence of mupirocin. FIC testing was performed to determine the combined effects of mupirocin and the RnpA inhibitors as described herein. Individual wells of a 96-well microtiter plate were inoculated with 1×10^5 CFU of S. aureus strain UAMS-1 in a Mueller Hinton broth. Each row of the plate contained increasing concentrations of RNPA1000 or RNPA2000 (two-fold increments; 0, 0.004, 0.008, 0.016, 0.03, 0.06, 0.125, 0.25, 0.5, 1, 2, or 4×MIC), whereas each column contained increasing concentrations of the indicated antibiotic (two-fold increments; 0, 0.06, 0.125, 0.25, 0.5, 1, 2, or 4×MIC). Plates were incubated for 18 hours at 37° C., and growth was detected by the unaided eye. The FIC was determined using the following formula: (MIC of Drug A in Combination/MIC of Drug A Alone)+(MIC of Drug B in Combination/MIC of Drug B Alone)=FIC. A synergistic interaction was defined as an FIC value≤0.5, no interaction as an FIC of 0.5-4, or an antagonistic interaction FIC>4.
# [3] = test system: RNase P-mediated tRNA processing; assay: Precursor tRNA processing within bacterial cells (FIG. 1, Panel B); type: cell-based
# Source text: Mupirocin is a generically available antibiotic that inhibits isoleucyl tRNA synthetase in bacterial cells. The enzyme charges tRNA molecules, allowing them to participate in protein translation. RnpA is an enzyme, which together with the ribozyme, rnpB, forms RNase P riboprotein complex that prepares precursor tRNA molecules for charging (it works upstream of tRNA synthetase in the tRNA processing pathway).
# [4] = test system: Staphylococcus aureus; assay: Antimicrobial activity of ointment / petroleum jelly suspensions (FIG. 2, Panel A); type: cell-based; conditions: subinhibitory concentration in petroleum jelly, S. aureus
# Source text: The addition of an RnpA inhibitor, such as RNPA2000, to mupirocin ointment (Teva Pharmaceuticals USA (North Wales, Pa.)) improved the antimicrobial efficacy of the ointment and is also effective against mupirocin resistant S. aureus. […] See FIG. 2, Panel A, upper left picture. […] See FIG. 2, Panel A, upper right picture.
# [5] = molecular target: T1, RnpA (Staphylococcus aureus, UniProt P0A0H5); assay: RnpA mRNA degradation activity assay; type: biochemical; conditions: RnpA mRNA degradation, gel densitometry; read-out: RnpA IC50
# T1 sequence (P0A0H5 1-117): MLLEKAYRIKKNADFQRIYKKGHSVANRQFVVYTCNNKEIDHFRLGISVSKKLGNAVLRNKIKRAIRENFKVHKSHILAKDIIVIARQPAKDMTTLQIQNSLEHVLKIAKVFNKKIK
# Method in brief: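 Total S. aureus RNA (1 μg) or in vitro transcribed spa mRNA (1 pmol) was incubated with 20 pmol RnpA plus compound for 15–30 min at 37° C in 50 mM Tris-HCl pH 8.0, 2 mM NaCl, 2 mM MgCl2. RNA was resolved on denaturing formaldehyde-agarose gels and quantified by densitometry. Percent inhibition is relative to RNA-alone and RnpA+DMSO controls.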
# [6] = molecular target: T2, S. aureus RNase P (RnpA+rnpB) (Staphylococcus aureus, UniProt P0A0H5); assay: RNase P activity assay (precursor tRNA processing); type: biochemical
# T2 sequence (P0A0H5 1-117): T1 sequence (P0A0H5 1-117)
# Method in brief: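 Reconstituted RnpA+rnpB (1.25 pmol) processed 10 pmol heat-denatured ptRNATyr for 15 min at 37 °C in low-salt (5 mM MgCl2) or high-salt (100 mM MgCl2, 800 mM NH4Cl) Tris pH 8.0 buffer with inhibitor or DMSO. Mature tRNATyr quantified by urea-PAGE densitometry, expressed as % of DMSO control.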
compound,measurement,setting,value
CC(C)c1ccc(OCC(=O)NNC(=S)NC(=O)c2ccco2)cc1 [RNPA2000],MIC,"[1]; 18 hours, listed as MC-220000",8 µg/mL
same,MIC,"[1]; Staphylococcus aureus, UAMS1, 18 h, read-out: MIC",16 µg/mL
same,FIC with Mupirocin,[2],0.44
same,precursor tRNA processing within bacterial cells,[3],inhibits precursor tRNA processing
same,antimicrobial properties in petroleum jelly,[4],no antimicrobial properties
same,IC50,[5],275 µM and 180 µM
same,precursor tRNA processing in vitro,"[6]; FIG. 1, Panel A",inhibits precursor tRNA processing
same,IC50,"[6]; ptRNATyr processing, gel densitometry, read-out: RNase P IC50",140 µM and 300 µM
